# Test results: patent US4639433A, “Glycopeptide derivatives” (Eli Lilly and Company, priority 1985, dated 1987)
# Tests used:
# Staphylococcus aureus = assay: Experimental bacterial infection in mice, ED50; format: in vivo; settings: two doses, administered subcutaneously
# Streptococcus pyogenes = assay: Experimental bacterial infection in mice, ED50; format: in vivo; settings: two doses, administered subcutaneously
# Streptococcus pneumoniae = assay: Experimental bacterial infection in mice, ED50; format: in vivo; settings: two doses, administered subcutaneously
# [1] = test system: Staphylococcus aureus NRRL B313; settings: agar dilution
# [2] = test system: Staphylococcus aureus V41; settings: agar dilution
# [3] = test system: Staphylococcus aureus X400; settings: agar dilution
# [4] = test system: Staphylococcus aureus S13E; settings: agar dilution
# [5] = test system: Staphylococcus epidermidis EPI1; settings: agar dilution
# [6] = test system: Staphylococcus epidermidis 222; settings: agar dilution
# [7] = test system: Streptococcus pyogenes C203; settings: agar dilution
# [8] = test system: Streptococcus pneumoniae Park 1; settings: agar dilution
# [9] = test system: Streptococcus faecium ATCC 9790; settings: agar dilution
# [10] = test system: Streptococcus sp. group D 2041; settings: agar dilution
# [11] = test system: Haemophilus influenzae C.L.; settings: agar dilution
# [12] = test system: Haemophilus influenzae 76; settings: agar dilution
# Escherichia coli N10 = settings: agar dilution
# Escherichia coli EC14 = settings: agar dilution
# Escherichia coli TEM = settings: agar dilution
# [13] = test system: Klebsiella pneumoniae X26; settings: agar dilution
# [14] = test system: Klebsiella pneumoniae X68; settings: agar dilution
# [15] = test system: Klebsiella pneumoniae KAE; settings: agar dilution
Structure (SMILES),ED50 (Staphylococcus aureus) [mg/kg/2],ED50 (Streptococcus pyogenes) [mg/kg/2],ED50 (Streptococcus pneumoniae) [mg/kg/2],MIC [1] [µg/mL],MIC [2] [µg/mL],MIC [3] [µg/mL],MIC [4] [µg/mL],MIC [5] [µg/mL],MIC [6] [µg/mL],MIC [7] [µg/mL],MIC [8] [µg/mL],MIC [9] [µg/mL],MIC [10] [µg/mL],MIC [11],MIC [12],MIC (Escherichia coli N10),MIC (Escherichia coli EC14),MIC (Escherichia coli TEM),MIC [13],MIC [14],also measured
"CCCC(=O)NC1(C)CC(OC2C(Oc3c4cc5cc3Oc3ccc(cc3Cl)C(O)C3NC(=O)C(NC(=O)C5NC(=O)C(CC(N)=O)NC(=O)C(NC(=O)C(CC(C)C)NC)C(O)c5ccc(c(Cl)c5)O4)c4ccc(O)c(c4)-c4c(O)cc(O)cc4C(C(=O)O)NC3=O)OC(CO)C(O)C2O)OC(C)C1O (stereo not drawn) [Compound 1, N^van --(1-oxo-n-butyl)vancomycin]",6.3,5.5,3.6,2,2,2,2,8,4,1,1,2,8,-- (not active at 128 mcg/ml),-- (not active at 128 mcg/ml),-- (not active at 128 mcg/ml),-- (not active at 128 mcg/ml),-- (not active at 128 mcg/ml),-- (not active at 128 mcg/ml),-- (not active at 128 mcg/ml),MIC [15]: -- (not active at 128 mcg/ml)
"CCCCCCCCCCCCCC(=O)NC1(C)CC(OC2C(Oc3c4cc5cc3Oc3ccc(cc3Cl)C(O)C3NC(=O)C(NC(=O)C5NC(=O)C(CC(N)=O)NC(=O)C(NC(=O)C(CC(C)C)NC)C(O)c5ccc(c(Cl)c5)O4)c4ccc(O)c(c4)-c4c(O)cc(O)cc4C(C(=O)O)NC3=O)OC(CO)C(O)C2O)OC(C)C1O (stereo not drawn) [Compound 14, N^van --(1-oxo-n-tetradecyl)vancomycin]",6.6,1.4,1.3,2,2,2,0.5,8,2,2,2,0.5,0.5,128 µg/mL,128 µg/mL,-- (not active at 128 mcg/ml),-- (not active at 128 mcg/ml),-- (not active at 128 mcg/ml),-- (not active at 128 mcg/ml),-- (not active at 128 mcg/ml),MIC [15]: -- (not active at 128 mcg/ml)
"CCCCCCCC(=O)NC1(C)CC(OC2C(Oc3c4cc5cc3Oc3ccc(cc3Cl)C(O)C3NC(=O)C(NC(=O)C5NC(=O)C(CC(N)=O)NC(=O)C(NC(=O)C(CC(C)C)NC)C(O)c5ccc(c(Cl)c5)O4)c4ccc(O)c(c4)-c4c(O)cc(O)cc4C(C(=O)O)NC3=O)OC(CO)C(O)C2O)OC(C)C1O (stereo not drawn) [Compound 3, N^van --(1-oxo-n-octyl)vancomycin]",6.9,4.4,4.8,1,2,2,2,8,2,0.5,0.5,2,4,-- (not active at 128 mcg/ml),-- (not active at 128 mcg/ml),-- (not active at 128 mcg/ml),-- (not active at 128 mcg/ml),-- (not active at 128 mcg/ml),-- (not active at 128 mcg/ml),-- (not active at 128 mcg/ml),MIC [15]: -- (not active at 128 mcg/ml)
"C=CCCCCCCCCC(=O)NC1(C)CC(OC2C(Oc3c4cc5cc3Oc3ccc(cc3Cl)C(O)C3NC(=O)C(NC(=O)C5NC(=O)C(CC(N)=O)NC(=O)C(NC(=O)C(CC(C)C)NC)C(O)c5ccc(c(Cl)c5)O4)c4ccc(O)c(c4)-c4c(O)cc(O)cc4C(C(=O)O)NC3=O)OC(CO)C(O)C2O)OC(C)C1O (stereo not drawn) [Compound 9, N^van --(1-oxo-10-n-decenyl)vancomycin]",3.7,1.9,1.8,0.5,0.5,0.5,0.5,2,0.5,0.25,0.25,0.25,1,-- (not active at 128 mcg/ml),128 µg/mL,-- (not active at 128 mcg/ml),-- (not active at 128 mcg/ml),-- (not active at 128 mcg/ml),-- (not active at 128 mcg/ml),-- (not active at 128 mcg/ml),MIC [15]: -- (not active at 128 mcg/ml)
